Reference: BindingDB's records for doi:10.1016/j.bmcl.2004.12.084 (Novo Nordisk, 2005)

Target: Peroxisome proliferator-activated receptor gamma (Homo sapiens) (UniProt P37231)
Experiment: Effective concentration for human peroxisome proliferator-activated receptor gamma

SMILES | EC50 [µM]
CCO[C@@H](Cc1ccc(OC/C=C(/C)C#Cc2ccccc2)cc1)C(=O)O [(S)-2-Ethoxy-3-[4-((Z)-3-methyl-5-phenyl-pent-2-en-4-ynyloxy)-phenyl]-propionic acid] | 0.6
CCO[C@@H](Cc1ccc(OCc2ccc(COc3ccc(C[C@H](OCC)C(=O)O)cc3)cc2)cc1)C(=O)O [(S)-3-(4-{4-[4-((S)-2-Carboxy-2-ethoxy-ethyl)-phenoxymethyl]-benzyloxy}-phenyl)-2-ethoxy-propionic acid] | 14
CCO[C@@H](Cc1ccc(O/C=C\Oc2ccc(C[C@@H](OCC)C(=O)O)cc2)cc1)C(=O)O [(S)-3-(4-{(Z)-2-[4-((R)-2-Carboxy-2-ethoxy-ethyl)-phenoxy]-vinyloxy}-phenyl)-2-ethoxy-propionic acid] | 15
